Here are results for 15 compounds from patent publication US6455286B1, “Psoralens for pathogen inactivation” (Cerus Corporation, priority 1997, dated 2002).

One series concerns R17. Briefly: R17 bacteriophage screen (photoinactivation, plaque assay on Hfr 3000 bacteria). Format: cell-based. The note with it: for Average log Inactivation, 4 μM: compound at 4 μM; for Average log Inactivation, 4 μM / Average log Inactivation, 32 μM: 15% FBS in DMEM, UVA 1 J/cm^2, average of 1-4 replicates; for Average log Inactivation, 32 μM: compound at 32 μM. From the text: A discussion of inactivation of pathogens other than the R17 model discussed below can be found in U.S. Pat. No. 5,593,823. This reference enables the selection criteria for use in pathogen inactivation of blood products for the compounds of the present invention. The screening technique used to evaluate the compounds of the present invention is to perform a bacteriophage screen; an assay which determines nucleic acid binding of test compounds. A screen of this type, an R17 screen, is described in detail in EXAMPLE 13, below.
The R17 bacteriophage screen is believed to be predictive of HIV inactivation efficiency, as well as the efficiency of compounds against many other viruses. It is a small, single stranded RNA phage. […] Further, single stranded RNA pathogens are more difficult to inactivate because psoralens can neither intercalate between base pairs, as with double-stranded nucleic acids, nor form diadducts which function as interstrand crosslinks. Thus it is expected that when inactivation of R17 is achieved, these same conditions will cause the inactivation of many viruses and bacteria.
The R17 was grown up in Hfr 3000 bacteria, approximate titer 5×10^11. (R17 and Hfr 3000 were obtained from American Tissue Culture Collection (ATCC), Washington, D.C.) The R17 phage stock was added to a solution of 15% fetal bovine serum in DMEM to a final phage concentration of 10^8/mL. An aliquot (0.5 mL) was transferred to a 1.5 mL snap-top polyethylene tube. An aliquot (0.004-0.040 mL) of the test compound stock solution prepared in water, ethanol or dimethylsulfoxide at 0.5 mM was added to the tube. Compounds were tested at concentrations between 4 μM and 32 μM. (AMT is commercially available from HRI, Inc., Concord, Calif.; 8-MOP is commercially available from Sigma, St. Louis, Mo.). The tubes were placed in a light device similar to that described in U.S. Pat. No. 5,593,823 (Baxter Ultraviolet Irradiation System, modified #4R4440) and irradiated at a dose setting of 1 J/cm^2. Sterile 13 mL dilution tubes were prepared; each test compound required one tube with 0.4 mL of LB broth and five tubes containing 0.5 mL of LB broth. To make the dilutions, a 0.100 mL aliquot of the irradiated solution of phage and test compound was added to the first dilution tube of 0.4 mL of media then 0.020 mL of this solution was added to the second tube of 0.5 mL medium (1:25). The second solution was then diluted serially (1:25) into the remaining tubes. To each diluted sample was added 0.050 mL of Hfr 3000 bacteria cultured overnight and 3 mL of molten LB top agar and the mixed materials were poured onto LB broth plates. After the top agar hardened, the plates were incubated at 37° C. overnight. The plaque forming units were then counted the following morning and the titer of the phage remaining after phototreatment was calculated based on the dilution factors.
The following controls were run: the “phage only” in which phage was not treated with test compound and not irradiated (listed as “starting titer” in the tables below); and the “dark” control in which the phage/test compound solution was not irradiated before it was diluted and plated. A “UV only” control in which the phage was illuminated without treatment with test compound was not run with these experiments.

The next series has as its system DNA. The note with it: cited from earlier work.
For series [1] the following is noted: Ames assay / bacterial assays, absence of light; cited from earlier work.
The subject of a further series is cell-free HIV (HIV-1). Briefly: Inactivation of cell-free HIV, residual infectivity by MT-2 microtiter plaque assay. It is filed as cell-based. The note with it: compound at 32 μM; 1 minute irradiation 320-400 nm (20 mW/cm^2); DMEM/15% FBS. How it is done: Pathogen inactivation efficiency of three compounds tested in the previous example were evaluated by examining the ability of the compounds to inactivate cell-free virus (HIV). Inactivation of cell-free HIV was performed as follows.
Small aliquots of the compounds were added to stock HIV-1 to a compound concentration of 32 μM in a total of 0.5 mL. The stock HIV (10^5-10^7 plaque forming units/mL) was in DMEM/15% FBS. The 0.5 mL test aliquots were placed in 24 well polystyrene tissue culture plates and irradiated with 320-400 nm (20 mW/cm^2) for 1 minute on a device similar to the device of EXAMPLE 13. Controls included HIV-1 stock only, HIV-1 plus UVA only, and HIV-1 plus the highest concentration of each psoralen tested, with no UVA. Post irradiation, all samples were stored frozen at −70° C. until assayed for infectivity by a microtiter plaque assay. Aliquots for measurement of residual HIV infectivity in the samples were withdrawn and cultured.
Residual HIV infectivity was assayed using an MT-2 infectivity assay. (Previously described in Hanson, C. V., Crowford-Miksza, L. and Sheppard, H. W., J. Clin. Micro 28:2030 (1990)). The assay medium was 85% DMEM (with a high glucose concentration) containing 100 μg of streptomycin, 100 U of penicillin, 50 μg of gentamicin, and 1 μg of amphotericin B per mL, 15% FBS and 2 μg of Polybrene (Sigma Chemical Co., St. Louis, Mo.) per mL. Test and control samples from the inactivation procedure were diluted in a mixture of 50% assay medium and 50% normal human serum. The samples were serially diluted directly in 96-well plates (Corning Glass Works, corning, N.Y.). The plates were mixed on an oscillatory shaker for 30 seconds and incubated at 37° C. in a 5% CO2 atmosphere for 1 to 18 hours. […] After 24 to 48 hours, the orange fluorescence-stained microplaques were visualized by placing the plates on an 8,000 μW/cm^2 304 nm UV light box (Fotodyne, Inc., New Berlin, Wis.). The plaques were counted at a magnification of ×20 to ×25 through a stereomicroscope.

Structures are written as SMILES. “Also recorded” adds a separate entry of the source.

On to `Cc1oc2cc3oc(=O)ccc3c(COCCN)c2c1C` [Compound 39, 5-(4-amino-2-oxa)butyl-4′,5′-dimethylpsoralen], for which, in the series on R17, the “Average log Inactivation, 4 μM” value is 1.6 log and the “Average log Inactivation, 32 μM” value was more than 6.6 log.

For the compound `Cc1cc2cc3c(C)c(CCN)c(=O)oc3c(C)c2o1` [Compound 35, 3-amino ethyl-4,5′,8-trimethylpsoralen], the “Average log Inactivation, 4 μM” value with R17 is given as 1.6 log.

On to `COc1c2occc2cc2ccc(=O)oc12` [Compound 8-MOP, 8-methoxypsoralen], for which, in the series on DNA, the “Photoactivated binding to nucleic acids” value is “relatively low”. For the same compound, the Mutagenicity entry in series [1] is on record as “low mutagenicity”.

As to `Cc1coc2cc3oc(=O)c(CN)cc3cc12` [Compound 41, 3-aminomethyl-4′-methylpsoralen], in the series on R17, the “Average log Inactivation, 4 μM” value was 0 log and the “Average log Inactivation, 32 μM” value was determined as 0.6 log.

For `Cc1coc2cc3oc(=O)cc(CN)c3cc12` [Compound 42, 4-aminomethyl-4′-methylpsoralen], in the series on R17, the “Average log Inactivation, 4 μM” value came to 0 log and the “Average log Inactivation, 32 μM” value was 1.2 log.

As to `Cc1coc2c(C)c3oc(=O)c(CN)c(C)c3cc12.Cl` [Compound 31, 3-aminomethyl-4,4′,8-trimethylpsoralen hydrochloride], the “Average log Inactivation, 4 μM” value in the series with R17 was 3.1 log. Also, in the series on cell-free HIV (HIV-1), the “Log Kill of cell-free HIV” value amounted to 1.9 log.

Consider `Cc1coc2c(C)c3oc(=O)c(COCCN)c(C)c3cc12` [Compound 37, 3-(4-amino-2-oxa)butyl-4,4′,8-trimethylpsoralen], for which, in the series with R17, the “Average log Inactivation, 4 μM” value is on record as 4.3 log and the “Average log Inactivation, 32 μM” value was more than 6.5 log.

With `Cc1oc2c(C)c3oc(=O)cc(C)c3cc2c1CN` [AMT, 4′-aminomethyl-4,5′,8-trimethylpsoralen, reference compound], in the series with R17, the “Average log Inactivation, 4 μM” value stood at 1.6 log and the “Average log Inactivation, 32 μM” value was more than 6.5 log. In addition, in series [1], the Mutagenicity result is “highly mutagenic; also recorded: significant levels of mutagenicity”.

With `Cc1oc2c(C)c3oc(=O)cc(CN)c3cc2c1C` [Compound 36, 4-aminomethyl-4′,5′,8-trimethylpsoralen], in the series on R17, the “Average log Inactivation, 4 μM” value is 0.1 log and the “Average log Inactivation, 32 μM” value was found to be 1.1 log.

As for `Cc1cc2cc3c(C)c(COCCN)c(=O)oc3c(C)c2o1` [3-(4-amino-2-oxa)butyl-4,5′,8-trimethylpsoralen], in the series on R17 (similar inactivation at less than half the AMT concentration, data not shown), the “Effectiveness of R17 inactivation relative to AMT” value is given as “at least twice as effective as AMT”.

Consider `Cc1oc2c(CN)c3oc(=O)cc(C)c3cc2c1C` [Compound 32, 8-aminomethyl-4,4′,5′-trimethylpsoralen], for which, in the series with R17, the “Average log Inactivation, 4 μM” value is listed as 1.1 log. In the series with cell-free HIV (HIV-1), the “Log Kill of cell-free HIV” value turned out to be 1.1 log.

As for `Cc1cc2cc3c(C)cc(=O)oc3c(CN)c2o1.Cl` [Compound 33, 8-aminomethyl-4,5′-dimethylpsoralen hydrochloride], in the series with R17, the “Average log Inactivation, 4 μM” value is reported as 0.4 log and the “Average log Inactivation, 32 μM” value was found to be 1.7 log.

In the case of `Cc1oc2c(COCCN)c3oc(=O)cc(C)c3cc2c1C` [Compound 40, 8-(4-amino-2-oxa)butyl-4,4′,5′-trimethylpsoralen], in the series with R17, the “Average log Inactivation, 4 μM” value came to 2.1 log and the “Average log Inactivation, 32 μM” value is listed as more than 6.3 log.

With `Cc1oc2c(C)c3oc(=O)c(CN)c(C)c3cc2c1C` [Compound 34, 3-aminomethyl-4,4′,5′,8-tetramethylpsoralen], the “Average log Inactivation, 4 μM” value in the series with R17 was 1.4 log. The “Log Kill of cell-free HIV” value in the series with cell-free HIV (HIV-1) turned out to be 3.5 log.

As for `Cc1oc2c(C)c3oc(=O)cc(COCCN)c3cc2c1C` [Compound 38, 4-(4-Amino-2-oxa)butyl-4′,5′,8-trimethylpsoralen], in the series with R17, the “Average log Inactivation, 4 μM” value is on record as 2.2 log and the “Average log Inactivation, 32 μM” value is “≧4.0 log”.
